Test system: mPTPB
Experiment: IFN-γ induced Erk1/2 phosphorylation in mPTPB transfected Raw264.7 cells
Assay type: cell-based, mouse
Protocol: Raw264.7 mouse macrophages were cultured in Dulbecco's modified Eagle's medium (DMEM) supplemented with 10% FBS (Invitrogen), penicillin (50 units/mL), and streptomycin (50 μg/mL) under a humidified atmosphere containing 5% CO2 at 37° C. Transfected Raw264.7 cells (Vector, WT-mPTPB) were seeded in a 12-well plate at a density of 4×10^4 cells/well. The following day cells were treated with mPTPB inhibitor 11a for 1 hour, then stimulated with IFN-γ (200 U/ml) for 1 hour. Subsequently, the cells were washed with ice-cold phosphate buffered saline, and lysed with lysis buffer on ice for 30 minutes. Cell lysate was then cleared by centrifuging at 13,000 rpm for 15 minutes. The phosphorylation of ERK1/2 was detected by Western blotting.

O=C(C(c1ccccc1)S(=O)(=O)O)N1CCCC2CCCCC21 (centres unmarked) [Compound L319N53]
Erk1/2 phosphorylation in mPTPB transfected Raw264.7 cells (8 nM, 16 nM, and 32 nM): increased Erk1/2 phosphorylation
Erk1/2 phosphorylation in vector cells (Raw264.7 vector cells): no effect

Reference: patent US10532977B2, “Small molecule inhibitors of protein tyrosine phosphatases and uses thereof” (Indiana University Research and Technology Corporation, priority 2015, dated 2020)
